Article PMC6152416, “Pharmacological and Toxicological Screening of Novel Benzimidazole-Morpholine Derivatives as Dual-Acting Inhibitors” (Molecules : A Journal of Synthetic Chemistry and Natural …, 2017)
Like-named read-outs stand apart in the source and are kept apart here.

Assays:
Assay type in all cases: biochemical
COX-1 = target: T1, COX-1 (Ovis aries, UniProt P05979); assay: Fluorimetric COX-1 inhibition screening kit (BioVision); conditions: for COX-1 inhibition at the initial concentrations: 10^−3 M and 10^−4 M; for inhibition at 10 µM: 10^−5 M; for inhibition at 1 µM: 10^−6 M; for inhibition at 0.1 µM: 10^−7 M; for inhibition at 0.01 µM: 10^−8 M; for inhibition at 0.001 µM: 10^−9 M
T1 construct: purchased BioVision (Milpitas, CA, USA) K548-100
T1 sequence (P05979 25-600): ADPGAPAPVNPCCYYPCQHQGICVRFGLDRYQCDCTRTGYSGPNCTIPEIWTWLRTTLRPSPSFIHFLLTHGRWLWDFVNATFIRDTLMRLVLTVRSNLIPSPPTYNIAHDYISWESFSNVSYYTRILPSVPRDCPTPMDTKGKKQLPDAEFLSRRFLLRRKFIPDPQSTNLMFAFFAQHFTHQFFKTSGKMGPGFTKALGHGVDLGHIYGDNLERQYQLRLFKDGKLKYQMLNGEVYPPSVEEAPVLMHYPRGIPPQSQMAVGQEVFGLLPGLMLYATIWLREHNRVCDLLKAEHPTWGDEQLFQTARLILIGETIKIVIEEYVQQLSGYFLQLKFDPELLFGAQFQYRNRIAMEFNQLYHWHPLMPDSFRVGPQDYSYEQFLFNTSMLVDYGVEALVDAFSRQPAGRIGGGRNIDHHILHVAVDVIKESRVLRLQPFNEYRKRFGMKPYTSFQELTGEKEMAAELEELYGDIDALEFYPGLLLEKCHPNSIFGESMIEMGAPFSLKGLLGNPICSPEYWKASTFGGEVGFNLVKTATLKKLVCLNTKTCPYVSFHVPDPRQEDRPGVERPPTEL
Method: (§1) Inhibitory potency of the compounds on COX-1 and COX-2 enzymes was determined by using fluorimetric COX-1 and COX-2 inhibition screening kits from BioVision (Milpitas, CA, USA). The experimental protocol as described in the guides provided by the supplier was followed. All of the pipetting were performed using a robotized system to increase speed, accuracy and precision. Fluorescence intensities of the samples were kinetically measured at 25 °C for 5–10 min by monitoring emissions at 587 nm after excitation at 535 nm. Two appropriate points (T1 and T2) in the linear range of the plot were chosen and the corresponding fluorescence values (RFU1 and RFU2) were obtained. The slope for all samples including Enzyme Control (EC) was calculated by dividing the net ΔRFU (RFU2 − RFU1) values by the time ΔT (T2 − T1). Percentage of relative inhibition was calculated by using the following equation:% Relative inhibition = (Slope of EC − Slope of S/Slope of EC) × 100 where S is the term representing the tested compound [51, 52]. […] The IC50 values were calculated using the plots of the enzyme activity against concentrations by applying regression analyses.

COX-2 = target: T2, COX-2 (Homo sapiens, UniProt P35354); assay: Fluorimetric COX-2 inhibition screening kit (BioVision); conditions: for COX-2 inhibition at the initial concentrations: 10^−3 M and 10^−4 M; for inhibition at 10 µM: 10^−5 M; for inhibition at 1 µM: read-out: COX 2 Inhibition %; for inhibition at 0.1 µM: 10^−7 M; for inhibition at 0.01 µM: 10^−8 M; for inhibition at 0.001 µM: 10^−9 M
T2 construct: purchased BioVision (Milpitas, CA, USA) K547-100
T2 sequence (P35354 18-604): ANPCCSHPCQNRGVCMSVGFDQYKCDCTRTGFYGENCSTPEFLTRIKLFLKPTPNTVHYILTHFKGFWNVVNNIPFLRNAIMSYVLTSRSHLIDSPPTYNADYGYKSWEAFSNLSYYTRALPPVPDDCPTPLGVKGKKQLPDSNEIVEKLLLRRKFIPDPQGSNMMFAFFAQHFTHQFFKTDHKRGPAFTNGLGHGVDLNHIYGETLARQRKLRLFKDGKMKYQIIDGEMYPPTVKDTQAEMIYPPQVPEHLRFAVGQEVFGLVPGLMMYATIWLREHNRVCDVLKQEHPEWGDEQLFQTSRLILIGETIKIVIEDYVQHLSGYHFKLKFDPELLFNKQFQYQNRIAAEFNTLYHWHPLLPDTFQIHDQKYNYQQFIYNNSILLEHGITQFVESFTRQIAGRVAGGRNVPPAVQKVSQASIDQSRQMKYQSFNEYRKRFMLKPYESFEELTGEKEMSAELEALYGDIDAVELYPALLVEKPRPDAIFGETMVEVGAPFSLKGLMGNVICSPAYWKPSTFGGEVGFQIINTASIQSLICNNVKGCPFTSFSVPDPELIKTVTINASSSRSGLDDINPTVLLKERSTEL
Method: as §1

AChE = AChE (Homo sapiens, UniProt P22303)
Sequence of AChE (P22303 32-614): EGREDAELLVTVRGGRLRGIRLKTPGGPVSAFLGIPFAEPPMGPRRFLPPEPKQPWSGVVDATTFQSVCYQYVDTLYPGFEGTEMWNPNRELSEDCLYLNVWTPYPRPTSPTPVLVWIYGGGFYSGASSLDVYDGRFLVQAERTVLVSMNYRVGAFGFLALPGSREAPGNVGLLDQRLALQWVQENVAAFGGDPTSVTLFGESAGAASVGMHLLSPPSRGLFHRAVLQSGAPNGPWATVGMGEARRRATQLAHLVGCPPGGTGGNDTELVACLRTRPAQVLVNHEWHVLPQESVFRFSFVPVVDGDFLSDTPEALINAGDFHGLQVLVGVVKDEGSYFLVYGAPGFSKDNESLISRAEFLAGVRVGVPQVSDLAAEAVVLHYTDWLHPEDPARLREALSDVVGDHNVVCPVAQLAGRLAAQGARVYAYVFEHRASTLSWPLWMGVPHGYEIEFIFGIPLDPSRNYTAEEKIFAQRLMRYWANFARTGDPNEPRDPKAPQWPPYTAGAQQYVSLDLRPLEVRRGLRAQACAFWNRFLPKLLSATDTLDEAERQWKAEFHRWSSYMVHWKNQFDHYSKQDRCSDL
Method: Inhibition potency of the test compounds against AChE was determined using Ellman’s method. Enzyme solutions were prepared in gelatin solution (1%, w/v), at the concentration of 2.5 units/mL. […] AChE solution (20 µL/well) and test solution (20 µL/well) were added to phosphate buffer solution (140 µL/well, pH 8.0 ± 0.1), and incubated at 25 °C for 5 min. […] The production of the yellow anion was recorded by multimode microplate reader for 10 min at 412 nm. As a control, an identical solution of the enzyme without the inhibitor was processed. The control and the inhibitor readings were corrected with blank-readings. All processes were assayed in four independent determinations.

human recombinant MAO-A = target: T3, human recombinant MAO-A (Homo sapiens, UniProt P21397); assay: MAO inhibition assay (kynuramine, fluorimetric)
T3 sequence (P21397 1-527): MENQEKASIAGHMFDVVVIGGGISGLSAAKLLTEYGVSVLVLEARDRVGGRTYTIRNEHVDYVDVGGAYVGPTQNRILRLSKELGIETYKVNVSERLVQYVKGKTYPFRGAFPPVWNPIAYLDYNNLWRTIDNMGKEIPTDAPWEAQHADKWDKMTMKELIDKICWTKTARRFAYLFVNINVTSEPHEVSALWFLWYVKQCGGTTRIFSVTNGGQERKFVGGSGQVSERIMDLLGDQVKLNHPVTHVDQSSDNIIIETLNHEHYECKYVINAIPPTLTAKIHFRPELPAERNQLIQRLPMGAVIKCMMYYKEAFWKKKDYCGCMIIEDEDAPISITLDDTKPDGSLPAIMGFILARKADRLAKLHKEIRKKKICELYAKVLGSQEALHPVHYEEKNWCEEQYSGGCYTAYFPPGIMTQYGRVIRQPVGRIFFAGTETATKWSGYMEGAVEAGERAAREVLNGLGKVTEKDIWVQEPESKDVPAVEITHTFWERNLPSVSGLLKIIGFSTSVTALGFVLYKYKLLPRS

## COc1ccc(-c2nc3ccccc3n2CCN2CCOCC2)cc1 [Compound 2b, 2-(4-Methoxyphenyl)-1-[2-(morpholin-4-yl)ethyl]-1H-benzimidazole]
COX-1
  IC50: 8.1 µM
  COX-1 inhibition at the initial concentrations: more than 50%
  inhibition at 10 µM: 59.4 ± 1.24%
  inhibition at 1 µM: 42.8 ± 1.02%
  inhibition at 0.1 µM: 37.1 ± 0.92%
  inhibition at 0.01 µM: 26.8 ± 0.87%
  inhibition at 0.001 µM: 19.6 ± 0.76%
COX-1; 10^-3 M
  COX-1 Inhibition (%): 90.12%
COX-1; 10^-4 M
  COX-1 Inhibition (%): 87.62%
COX-2
  IC50: 8.37 µM
  COX-2 inhibition at the initial concentrations: more than 50%
  inhibition at 10 µM: 57.9 ± 1.28%
  inhibition at 0.1 µM: 38.1 ± 0.97%
  inhibition at 0.01 µM: 27.4 ± 0.87%
  inhibition at 0.001 µM: 21.4 ± 0.74%
COX-2; 10^-3 M
  COX-2 Inhibition (%): 79.41%
COX-2; 10^-4 M
  COX-2 Inhibition (%): 84.23%
COX-2; 10^−6 M
  inhibition at 1 µM: 43.7 ± 1.12%
AChE; 10^-3 M
  AChE Inhibition (%): 5.19%
AChE; 10^-4 M
  AChE Inhibition (%): 5.19%
Human recombinant MAO-A; 10^-3 M
  MAO-A Inhibition (%): 29.44%
Human recombinant MAO-A; 10^-4 M
  MAO-A Inhibition (%): 24.61%

## Clc1ccc(-c2nc3ccccc3n2CCN2CCOCC2)cc1 [Compound 2c, 2-(4-Chlorophenyl)-1-[2-(morpholin-4-yl)ethyl]-1H-benzimidazole]
COX-1; 10^-3 M
  COX-1 Inhibition (%): 24.55%
COX-1; 10^-4 M
  COX-1 Inhibition (%): 22.15%
COX-2; 10^-3 M
  COX-2 Inhibition (%): 17.85%
COX-2; 10^-4 M
  COX-2 Inhibition (%): 20.99%
AChE; 10^-3 M
  AChE Inhibition (%): 5.48%
AChE; 10^-4 M
  AChE Inhibition (%): 5.48%
Human recombinant MAO-A; 10^-3 M
  MAO-A Inhibition (%): 31.58%
Human recombinant MAO-A; 10^-4 M
  MAO-A Inhibition (%): 26.17%

## CC(C)c1ccc(-c2nc3ccccc3n2CCN2CCOCC2)cc1 [Compound 2e, 2-(4-Isopropylphenyl)-1-[2-(morpholin-4-yl)ethyl]-1H-benzimidazole]
COX-1; 10^-3 M
  COX-1 Inhibition (%): 26.47%
COX-1; 10^-4 M
  COX-1 Inhibition (%): 19.88%
COX-2; 10^-3 M
  COX-2 Inhibition (%): 14.26%
COX-2; 10^-4 M
  COX-2 Inhibition (%): 22.61%
AChE; 10^-3 M
  AChE Inhibition (%): 17.51%
AChE; 10^-4 M
  AChE Inhibition (%): 17.51%
Human recombinant MAO-A; 10^-3 M
  MAO-A Inhibition (%): 24.29%
Human recombinant MAO-A; 10^-4 M
  MAO-A Inhibition (%): 17.31%

## CCOc1ccc(-c2nc3ccccc3n2CCN2CCOCC2)cc1 [Compound 2j, 2-(4-Ethoxyphenyl)-1-[2-(morpholin-4-yl)ethyl]-1H-benzimidazole]
COX-1
  IC50: 14.2 µM
  COX-1 inhibition at the initial concentrations: more than 50%
  inhibition at 10 µM: 51.4 ± 1.15%
  inhibition at 1 µM: 44.5 ± 1.07%
  inhibition at 0.1 µM: 37.7 ± 0.76%
  inhibition at 0.01 µM: 27.5 ± 0.82%
  inhibition at 0.001 µM: 23.4 ± 0.61%
COX-1; 10^-3 M
  COX-1 Inhibition (%): 85.07%
COX-1; 10^-4 M
  COX-1 Inhibition (%): 88.68%
COX-2
  IC50: 13.1 µM
  COX-2 inhibition at the initial concentrations: more than 50%
  inhibition at 10 µM: 52.5 ± 1.35%
  inhibition at 0.1 µM: 34 ± 1.06%
  inhibition at 0.01 µM: 26.9 ± 0.86%
  inhibition at 0.001 µM: 20.5 ± 0.76%
COX-2; 10^-3 M
  COX-2 Inhibition (%): 80.66%
COX-2; 10^-4 M
  COX-2 Inhibition (%): 79.23%
COX-2; 10^−6 M
  inhibition at 1 µM: 43.4 ± 1.27%
AChE; 10^-3 M
  AChE Inhibition (%): 7.20%
AChE; 10^-4 M
  AChE Inhibition (%): 7.20%
Human recombinant MAO-A; 10^-3 M
  MAO-A Inhibition (%): 28.47%
Human recombinant MAO-A; 10^-4 M
  MAO-A Inhibition (%): 19.42%

## FC(F)(F)Oc1ccc(-c2nc3ccccc3n2CCN2CCOCC2)cc1 [Compound 2m, 2-(4-Trifluoromethoxyphenyl)-1-[2-(morpholin-4-yl)ethyl]-1H-benzimidazole]
COX-1
  IC50: 21.9 µM
  COX-1 inhibition at the initial concentrations: more than 50%
  inhibition at 10 µM: 47.4 ± 1.16%
  inhibition at 1 µM: 42 ± 0.88%
  inhibition at 0.1 µM: 36.6 ± 0.92%
  inhibition at 0.01 µM: 26.2 ± 0.79%
  inhibition at 0.001 µM: 20 ± 0.62%
COX-1; 10^-3 M
  COX-1 Inhibition (%): 79.15%
COX-1; 10^-4 M
  COX-1 Inhibition (%): 78.61%
COX-2
  IC50: 22.7 µM
  COX-2 inhibition at the initial concentrations: more than 50%
  inhibition at 10 µM: 46.1 ± 1.13%
  inhibition at 0.1 µM: 34.5 ± 0.97%
  inhibition at 0.01 µM: 28.7 ± 0.83%
  inhibition at 0.001 µM: 22.3 ± 0.52%
  inhibition at 1 µM: 41.2 ± 1.05%
COX-2; 10^-3 M
  COX-2 Inhibition (%): 64.22%
COX-2; 10^-4 M
  COX-2 Inhibition (%): 59.67%
AChE; 10^-3 M
  AChE Inhibition (%): 32.90%
AChE; 10^-4 M
  AChE Inhibition (%): 32.90%
Human recombinant MAO-A; 10^-3 M
  MAO-A Inhibition (%): 34.29%
Human recombinant MAO-A; 10^-4 M
  MAO-A Inhibition (%): 16.39%
